According to US12622917B2, “High-activity Wnt pathway inhibitor compound” (ADLAI NORTYE BIOPHARMA CO., LTD., priority 2020, dated 2026):

Experiments:
Assay type in all cases: cell-based
[1] = system: Hela; assay: Proliferation inhibition, non-Wnt mutant control cell line Hela; conditions: Homo sapiens, Wnt-independent control cell line, 96 hours, read-out: Antiproliferative IC50 Hela
From the text: The cell lines used in the experiment are Colo205 and DU4475 cell lines whose Wnt pathway is continuously activated and whose proliferation is Wnt pathway-dependent; while the BELA and RKO cell lines, whose Wnt pathway is not activated under normal circumstances and the proliferation is independent of Wnt pathway, as control cell lines. It is Judged that the inhibitory effect of the compound of the present invention on Wnt-dependent proliferation is not caused by other non-specific toxicity.
Treat the Colo205, Du4475, HELA and RKO cell lines cultured in their respective mediums in the logarithmic growth phase, collect the cells and prepare a uniform cell suspension of known concentration, and then add it to the 96-well cell culture plate Cell suspension, so that each well contains 1000 cells. Put it into a 5% CO2 incubator and incubate at 37° C. for 20-24 h. On the second day, the fully dissolved, 3-fold serially diluted compound was added to each cell culture well, so that the final maximum concentration in the cell culture well was 20 uM, and the culture was continued for 96 hours. In this test, Promega's cell viability detection test is used for detection. The more the cells proliferate, the stronger the final signal intensity will be. The detection instrument is SpectraMax, full wavelength mode. The wells only added with DMSO were used as positive control wells, and the wells that were not inoculated with cells were used as negative control wells. […] The IC50 value of cell proliferation inhibition was used to evaluate the inhibitory effect of the compound on the Wnt pathway and the toxic effect on normal cells (Table 2).

[2] = system: DU4475; assay: Proliferation inhibition, Wnt mutant cell line DU4475; conditions: Homo sapiens, DU-4475; DU4475, Wnt pathway-dependent, 96 hours; read-out: Antiproliferative IC50 DU4475
Procedure, shortened: (§1)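 IC50 for growth inhibition came from a 96-hour incubation with serially diluted compound (3-fold, top 20 uM final), with cells seeded at 1000 per well the day before and read by a Promega viability assay.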

[3] = system: Colo205-LUC-TCF/LEF M1 reporter cell line (Wnt pathway); assay: Colo205-LUC-TCF/LEF M1 reporter gene (luciferase) inhibition; conditions: 4 hours incubation, luciferase readout
Procedure, shortened: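 Luminescent readout of TCF/LEF-regulated luciferase after a 4 h, 37° C compound exposure in a stable Colo205 reporter clone (10,000 cells/well). Serial 3-fold dilutions started at 20 uM; IC50 derived using DMSO-treated cells and no-cell wells as controls.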

[4] = system: RKO; assay: Proliferation inhibition, non-Wnt mutant control cell line RKO; conditions: Homo sapiens, Wnt-independent control cell line, 96 hours, read-out: Antiproliferative IC50 RKO
Procedure, shortened: as §1

[5] = system: Colo205; assay: Proliferation inhibition, Wnt mutant cell line Colo205; conditions: Homo sapiens, COLO 205; Colo205, Wnt pathway-dependent, 96 hours; read-out: Antiproliferative IC50 Colo205
Procedure, shortened: as §1

Row | IC50 [1] [µM] | IC50 [3] [nM] | IC50 [5] [nM] | Structure (SMILES) | IC50 [2] [nM] | IC50 [4] [µM]
1 | > 10 | 54 | 30 | COC[C@H]1C(=O)N2CCCc3nc(NCc4ccc(Oc5ccc(C(F)(F)F)nc5)nc4)nc(c32)N1C [106 (W190), (S)-5-(methoxymethyl)-4-methyl-2-(((6-((6-(trifluoromethyl)pyridin-3-yl)oxo)pyridin-3-yl)methyl)amino)-4,5,9,10-tetrahydro-6H,8H-pyrido[3,2,1-de]pteridin-6-one] | 46 | > 10
2 | > 10 | 53 | 41 | C[C@H]1C(=O)N2CCCc3nc(NCc4cnn(Cc5ccc(F)cc5)c4)nc(c32)N1C [Example 15, (S)-2-(((1-(4-fluorobenzyl)-1H-pyrazol-4-yl)methyl)amino)-4,5-dimethyl-4,5,9,10-tetrahydro-6H,8H-pyrido[3,2,1-de]pteridin-6-one] | 44 | > 10
3 | > 10 | 9 | 8 | C[C@H]1CN(C)c2nc(NCc3cnn(Cc4ccc(C(F)(F)F)nc4)c3)nc3ccn1c23 [Example 19, (S)-4,6-dimethyl-N-((1-((6-(trifluoromethyl)pyridin-3-yl)methyl)-1H-pyrazol-4-yl)methyl)-5,6-dihydro-4H-pyrrolo[3,2,1-de]pteridin-2-amine] | 9 | > 10
4 | > 10 | 30 | 97 | C[C@H]1CN(C)c2nc(NCc3cnn(Cc4ccc(C(F)(F)F)nc4)c3)nc3cc(C(F)F)n1c23 [Example 21, (S)-8-(difluoromethyl)-4,6-dimethyl-N-((1-((6-(trifluoromethyl)pyridin-3-yl)methyl)-1H-pyridine Azol-4-yl)methyl)-5,6-dihydro-4H-pyrrolo[3,2,1-de]pteridin-2-amine] | 73 | 3.03
5 | > 10 | 10 | 22 | C[C@H]1Cn2c(C(F)F)cc3nc(NCc4cnn(Cc5ccc(C(F)(F)F)nc5)c4)nc(c32)N1C [Example 22, (S)-8-(difluoromethyl)-4,5-dimethyl-N-((1-((6-(trifluoromethyl)pyridin-3-yl)methyl)-1H-pyridine Azol-4-yl)methyl)-5,6-dihydro-4H-pyrrolo[3,2,1-de]pteridin-2-amine] | 19 | 5.42
6 | > 10 | 11 | 16 | CC(C)N1C[C@H](C)n2ccc3nc(NCc4cnn(Cc5ccc(C(F)(F)F)nc5)c4)nc1c32 [Example 23, (S)-4-isopropyl-6-methyl-N-((1-((6-(trifluoromethyl)pyridin-3-yl)methyl)-1H-pyrazol-4-yl)methyl)-5,6-dihydro-4H-pyrrolo[3,2,1-de]pteridin-2-amine] | 15 | 3.38
7 | > 10 | 13 | 9 | [2H]C1([2H])[C@H](COC)N(C)c2nc(NCc3cnn(Cc4ccc(C(F)(F)F)nc4)c3)nc3ccn1c23 [Example 24, (R)-5-(methoxymethyl)-4-methyl-N-((1-((6-(trifluoromethyl)pyridin-3-yl)methyl)-1H-pyrazole-4-yl)methyl)-5,6-dihydro-4H-pyrrolo[3,2,1-de]pteridin-6,6-d2-2-amine] | 9.7 | > 10
8 | > 10 | 19 | 44 | COC[C@H]1CN(C)c2nc(NCc3cnn(Cc4ccc(C(F)(F)F)nc4)c3)nc3cc(C)n1c23 [Example 25, (R)-6-(methoxymethyl)-4,8-dimethyl-N-((1-((6-(trifluoromethyl)pyridin-3-yl)methyl)-1H-pyrazol-4-yl)methyl)-5,6-dihydro-4H-pyrrolo[3,2,1-de]pteridin-2-amine] | 50 | > 10
